Results taken from PMC9696974 (Pharmaceutics, 2022).
Where two headings read alike, the source gives them in different places.

Legend:
ct-DNA [1] = test: Thermal denaturation of ct-DNA (∆Tm); type: binding, calf; conditions: I = 50 mM
Method: (§1) Experiments were conducted in an aqueous buffer solution (pH = 7.0 or pH= 5.0, I = 0.05 M, sodium cacodylate buffer). For the UV-Vis spectra were used Varian Cary 100 Bio spectrometer, for fluorescence spectra we used the Varian Cary Eclipse fluorimeter and for CD spectra we used the JASCO J815 spectropolarimeter, all conducted at 25.0 °C using appropriate quartz cuvettes (path length: 1 cm).
(§2) Polynucleotides were purchased as noted: poly dAdT-poly dAdT, poly dGdC-poly dGdC, poly A-poly U (ds-RNA), (Sigma-Aldrich, Schnelldorf, Germany), calf thymus (ct)-DNA (Sigma-Aldrich, Schnelldorf, Germany) and dissolved in sodium cacodylate buffer, I = 0.05 M, pH = 7.0. The ct-DNA was sonicated and filtered through a 0.45 µm filter to obtain mostly short (ca. 100 base pairs) rod-like B-helical DNA fragments. The concentration of DNA or RNA was determined spectroscopically as the c(nucleobase) using producer-provided molar extinction coefficients.
(§3) Thermal denaturation of ds-DNA, ds-RNA and their complexes with studied compounds was performed by monitoring the absorption change at 260 nm as a function of temperature. Tm values are the midpoints of the transition curves determined from the maximum of the first derivative and checked graphically by the tangent method. The ∆Tm values were calculated by subtracting the Tm of the free nucleic acid from the Tm of the complex. Every ∆Tm value here reported was the average of at least two measurements. The error in ∆Tm is ± 0.5 °C.

[2] = pKa from pH dependence of UV/vis spectrum; type: physicochemical; conditions: water (0.001 M HCl in miliQ water, titrated with NaOH), UV/vis spectra vs pH in water, c = 2.0 × 10^−5 M
Solubility in water = type: physicochemical
A549 cells [3] = test: Confocal time-lapse imaging under irradiation; type: cell-based, human; conditions: A549, 1 µM (Figure 9), irradiated at 350 nm
Method: Cells were left in the cell incubator for 90 min to allow the compound to enter the cells. After incubation, the medium was replaced with 500 μL of fresh medium. […]

ct-DNA [4] = tested on: ct-DNA; design: method as in PMID 33231335; conditions: I = 50 mM, cited from earlier work
[5] = tested on: poly A-poly U (AU-RNA, pApU) (RNA, polymer) A/U; test: fluorimetric titration, Scatchard; conditions: Na+ (sodium cacodylate, I = 0.05 M); pH 7.0, 25 °C; Scatchard n fixed at 0.2 or 0.3; per base
poly dAdT-poly dAdT = test: Thermal denaturation of poly dAdT-poly dAdT (∆Tm); type: binding; conditions: I = 50 mM
Method: as §1, §2, §3

A549 cells [6] = test: Mitochondrial ROS (MitoSOX Red); type: cell-based, human; conditions: A549, 1 µM plus UV irradiation, vs DMSO and 1M alone
Method: For measuring mitochondrial ROS, A549 cells were treated with 1 μM of the respective compound and incubated for 90 min (37 °C, 5% CO2), allowing the compound to enter to cells. Mitochondrial superoxide production was assessed with MitoSOX Red reagent (Thermo Fisher Scientific, Waltham, MA). The cells were washed with PBS and trypsinized, and then kept on ice unless otherwise specified. Cells were distributed into small tubes (3 × 10^5 cells per tube) and resuspended in 5 µM MitoSOX solution prepared in PBS. The cells were incubated on a thermomixer for 30 min at 37 °C, with shaking (300 rpm), in the dark, followed by two washes with PBS. Then, cells dyed with MitoSOX were re-suspended in 400 µL of PBS and distributed into black 96-well plates, 120 µL per well (in triplicate). A Tecan Infinite 200 fluorescence microplate reader with 485/520 and 520/590 nm excitation/emission wavelengths was used to measure MitoSOX fluorescence.

[7] = tested on: pApU (poly A-poly U, ds-RNA); test: Thermal denaturation of pApU ds-RNA (∆Tm); type: binding; conditions: I = 50 mM
Method: as §1, §2, §3

[8] = tested on: poly dAdT-poly dAdT (AT-DNA, p(dAdT)2) (DNA, polymer) AT; test: UV thermal denaturation at 260 nm; conditions: Na+ (sodium cacodylate, I = 50 mM); pH 7.0; r = [compound]/[polynucleotide] = 0.2; error ± 0.5 °C; per base
[9] = r = 0.2, pH 7.0, sodium cacodylate buffer
[10] = r = 0.3, pH 7.0, sodium cacodylate buffer

SMILES | ∆Tm ct-DNA (ct-DNA [1]; r = 0.1, pH 5.0, sodium cacodylate buffer) | ∆Tm ct-DNA (ct-DNA [1]; r = 0.3, pH 5.0, sodium cacodylate buffer) | pKa [2] | Solubility in water (Solubility in water) | Cell morphology under continuous irradiation (A549 cells [3]) | ∆Tm ct-DNA (ct-DNA [4]; [9]) | ∆Tm ct-DNA (ct-DNA [4]; [10]) | logKs [5] | ∆Tm Poly dAdT-Poly dAdT (poly dAdT-poly dAdT; [9]) | ∆Tm Poly dAdT-Poly dAdT (poly dAdT-poly dAdT; [10]) | mtROS levels (MitoSOX Red) (A549 cells [6]) | ∆Tm pApU [7, 9] | ∆Tm pApU [7, 10] | ∆Tm [8] | ∆Tm ct-DNA (ct-DNA [1]; [9]) | ∆Tm ct-DNA (ct-DNA [1]; [10])
c1cc2ccc3cc(-c4ccncc4)cc4ccc(c1)c2c34 [compound 1] | 0 °C | 2 °C | ~5 | poorly soluble in water | – | – | – | – | – | – | – | – | – | – | – | –
C[n+]1ccc(-c2cc3ccc4cccc5ccc(c2)c3c45)cc1 [1M, 2-para-N-methylpyridinium pyrene] | – | – | – | – | swelling and even blebbing morphology | ^c 2 °C | ^c 2 °C | 5.8 | 8 °C | 9 °C | significantly increased mtROS levels | 3 °C | 3 °C | 8 °C | – | –
C[n+]1ccc(-c2cc3ccc4cc(-c5cc[n+](C)cc5)cc5ccc(c2)c3c45)cc1 [2M] | – | – | – | – | swelling and even blebbing morphology | – | – | 8.5 | 31 °C | 33 °C | – | 4 °C | – | 31 °C | ^d >16 °C | ^d >16 °C
